For test [1], the system named is HepG2. Description: Hypolipidemic activity against oleic acid/palmitic acid-induced hyperlipidemia in human HepG2 cells assessed as triglycerides content measured per gm of protein. In kind it is functional.
Test [2] has as its system HepG2. Description: Hypolipidemic activity against oleic acid/palmitic acid-induced hyperlipidemia in human HepG2 cells assessed reduction in total cholesterol level at 10 uM. In kind it is functional, cell-based.
The subject of test [3] is HepG2. As to the kind of experiment: Hypolipidemic activity against oleic acid/palmitic acid-induced hyperlipidemia in human HepG2 cells assessed as decrease in triglycerides level at 0.001 to 10 uM. It is filed as functional, cell-based. Conditions: dose 0.001-10 µM.
For test [4], the system named is HepG2. As to the kind of experiment: Hypolipidemic activity against oleic acid/palmitic acid-induced hyperlipidemia in human HepG2 cells assessed as reduction in triglycerides content relative to control group. It is filed as functional.
Test [5] deals with HepG2. Description: Hypolipidemic activity against oleic acid-induced lipid accumulation in human HepG2 cell model assessed reduction in total cholesterol level. It is filed as functional, cell-based.
Test [6] concerns HepG2. As to the kind of experiment: Hypolipidemic activity against oleic acid/palmitic acid-induced hyperlipidemia in human HepG2 cells assessed as reduction in triglycerides content. It is filed as functional, cell-based.
Test [7] has as its system HepG2. As to the kind of experiment: Hypolipidemic activity against oleic acid/palmitic acid-induced hyperlipidemia in human HepG2 cells assessed as decrease in triglycerides level at 0.01 to 1 uM. In kind it is functional, cell-based. To be noted: dose 0.01-1 µM.
The test system of test [8] is HepG2. As to the kind of experiment: Hypolipidemic activity against oleic acid/palmitic acid-induced hyperlipidemia in human HepG2 cells assessed reduction in total cholesterol level at 0.001 to 10 uM. It is filed as functional, cell-based. To be noted: dose 0.001-10 µM.
Test [9] deals with HepG2. Description: Hypolipidemic activity against oleic acid/palmitic acid-induced hyperlipidemia in human HepG2 cells assessed as decrease in triglycerides level at 0.001 to 1 uM. It is filed as functional, cell-based. Conditions: dose 0.001-1 µM.

Molecules are shown by their SMILES. Calls of active or inactive are those of the source. The calls are words filed in the database; no cut-off is given here.

On to `O=c1cc(-c2ccc(O)cc2)oc2c([C@@H]3O[C@H](CO)[C@@H](O[C@@H]4O[C@H](CO)[C@@H](O)[C@H](O)[C@H]4O)[C@H](O)[C@H]3O)c(O)cc(O)c12`, for which the Activity in the test on HepG2 [1] worked out at 0.28 mmol. Further, the outcome in the test on HepG2 [2] and with HepG2 [3] was Active. Besides, the “inhibition (INH)” value with HepG2 [4] came to 35.34%.

Regarding `O=c1c(O[C@@H]2O[C@H](CO)[C@@H](O)[C@H](O)[C@H]2O)c(-c2ccc(O)c(O)c2)oc2cc(O)cc(O)c12` [ISOQUERCETIN], in the test with HepG2 [1], the Activity is 0.308 mmol. Besides, the outcome in the test on HepG2 [5] was inactive. Also, in the test on HepG2 [3], the result was Active. Moreover, the “inhibition (INH)” value with HepG2 [4] amounted to 30.42%.

Turning to `O=c1c(O[C@@H]2O[C@H](CO)[C@H](O)[C@H](O)[C@H]2O)c(-c2ccc(O)c(O)c2)oc2cc(O)cc(O)c12`, the outcome in the test with HepG2 [6] was Active.

Consider `O=C1C[C@@H](c2ccc(O)c(O)c2)c2c(cc3c(c2O)C[C@@H](O)[C@@H](c2ccc(O)c(O)c2)O3)O1`, for which the result with HepG2 [6] was Active.

`CCC(C)(C)C(=O)O[C@H]1C[C@@H](C)C=C2C=C[C@H](C)[C@H](CC[C@@H]3C[C@@H](O)CC(=O)O3)[C@H]21`: the result in the test on HepG2 [5] and in the test with HepG2 [6] was Active.

As to `COc1cc(CO[C@@H]2O[C@H](CO)[C@@H](O)[C@H](O)[C@H]2O)cc(OC)c1OC`, in the test with HepG2 [6], the result was Active.

As to `Oc1cc(O)c2c(c1)O[C@H](c1ccc(O)c(O)c1)[C@@H](O)C2`, the outcome with HepG2 [6] was Active.

For `O=c1c(O)c(-c2ccc(O)c(O)c2)oc2cc(O)cc(O)c12`, in the test with HepG2 [6], the result was Active.

`Oc1cc(O)c2c(c1)O[C@H](c1ccc(O)c(O)c1)[C@H](O)C2`: the result in the test with HepG2 [6] was Active.

Consider `C[C@@H]1O[C@@H](O[C@@H]2[C@@H](O)[C@H](O)[C@@H](CO)O[C@H]2c2c(O)cc(O)c3c(=O)cc(-c4ccc(O)cc4)oc23)[C@H](O)[C@H](O)[C@H]1O`, for which the result in the test on HepG2 [6] was Active.

As to `O=c1cc(-c2ccc(O)cc2)oc2c([C@@H]3O[C@H](CO)[C@@H](O)[C@H](O)[C@H]3O)c(O)cc(O)c12`, the figures for the Activity in the test on HepG2 [1], in the test with HepG2 [7] and with HepG2 [8] were 0.283 mmol, “Dose-Dependent Effect” and “Dose-Dependent Effect”, respectively. Moreover, the inhibition (as a rule, the change of the read-out against control, counted positive when it falls) in the test with HepG2 [4] (dose or concentration not given here) worked out at 34.6%.

Turning to `O=C(/C=C/c1ccc(O)c(O)c1)O[C@@H]1C[C@](O)(C(=O)O)C[C@@H](O)[C@H]1O`, in the test on HepG2 [6], the outcome was Active.

As for `O=C1C[C@@H](c2ccc(O)c(O)c2)c2c(cc(O)c3c2O[C@H](c2cc(O)cc(O)c2)[C@H](O)C3)O1`, the Activity in the test with HepG2 [1] was 0.28 mmol; in the test with HepG2 [8], “Dose-Dependent Effect”; in the test with HepG2 [9], “Dose-Dependent Effect”. Also, in the test with HepG2 [4], the “inhibition (INH)” value was 34.92%.

The values above are taken from ChEMBL document CHEMBL4819155, “Phenolic compounds from the leaves of Crataegus pinnatifida Bge. var. major N.E.Br. And their lipid-lowering effects” (2021).
